Source: patent US20150038430A1, “THERAPEUTIC PEPTIDOMIMETIC MACROCYCLES” (AILERON Therapeutics, Inc., priority 2008, published 2015)
Numbered stars: 1 amine (or outer) side, 2 acyl side, 3 side chain; on linkers, the order of the positions; unused ones are H or OH. Bridge positions count the residues as written; N and C are the ends. Square brackets hold non-standard residues; d marks the D form. Peptide text beside a SMILES is read from it. ξ: configuration not given here. ξαMeNle(6-ylidene) = CC(CCCC=[*:3])(N[*:1])C(=O)[*:2]; Nle = CCCC[C@H](N)C(=O)O

Assays:
NCI-H220 = assay: MTT cell viability assay, NCI-H220; assay type: cell-based, human; conditions: 20 μM, MTT 48 hrs, FIG. 1
Method: (§1) Cell viability assays shown in FIGS. 1-32 were performed according to the following protocol. Tumor cell lines were grown in specific serum-supplemented media (growth media) as necessary. A day prior to the initiation of the study, cells were plated at optimal cell density (15,000 to 25,000 cells/well) in 200 μl growth media in microtiter plates. The next day, cells were washed twice in serum-free/phenol red-free RPMI complete media (assay buffer) and a final volume of 100 μl assay buffer was added to each well. Human peripheral blood lymphocytes (hPBLs) were isolated from Buffy coats (San Diego Blood Bank) using Ficoll-Paque gradient separation and plated on the day of the experiment at 25,000 cells/well.
(§2) Peptidomimetic macrocycles were diluted from 1 mM stocks (100% DMSO) in sterile water to prepare 400 μM working solutions. The peptidomimetic macrocycles and controls were then diluted 10 or […] or alternatively serially two-fold diluted in assay buffer in dosing plates to provide concentrations of either 40 and 20 μM or between 1.2 and 40 μM, respectively. […]
(§3) Towards the end of the 4 hour incubation time, 22 μl FBS was added to each well for a total concentration of 10% FBS. […] At the end of the incubation period, MTT assay was performed according to manufacturer's instructions (Sigma, catalog #M2128) and absorbance was measured at 560 nm using Dynex Opsys MR Plate reader. […]

A-549 = assay: MTT cell viability assay, A-549; assay type: cell-based, human; conditions: 20 μM, MTT 48 hrs, FIG. 1
Method: as §1, §2, §3

[1] = test system: leukemia/lymphoma human cell lines; assay: MTT cell viability assay, leukemia/lymphoma lines; assay type: cell-based; conditions: 20 μM, MTT 48 hrs, FIG. 1
Method: as §1, §2, §3

NCI-H128 = assay: MTT cell viability assay, NCI-H128; assay type: cell-based, human; conditions: 20 μM, MTT 48 hrs, FIG. 1
Method: as §1, §2, §3

NCI-H146 = assay: MTT cell viability assay, NCI-H146; assay type: cell-based, human; conditions: 20 μM, MTT 48 hrs, FIG. 1
Method: as §1, §2, §3

H-460 = assay: MTT cell viability assay, H-460; assay type: cell-based, human; conditions: 20 μM, MTT 48 hrs, FIG. 1
Method: as §1, §2, §3

U251 = assay: MTT cell viability assay, U251; assay type: cell-based, human; conditions: 20 μM, MTT 48 hrs, FIG. 1
Method: as §1, §2, §3

[2] = Melting temperature determination by circular dichroism; assay type: physicochemical; conditions: 50 μM in ddH2O, CD at 222 nm, 5-95° C.
Method: To assay the effect of macrocycle formation on meltine temperature, peptidomimetic macrocycles or unmodified peptides are dissolved in distilled H2O (e.g. at a final concentration of 50 μM) and the Tm is determined by measuring the change in ellipticity over a temperature range (e.g. 4 to 95° C.) on a spectropolarimeter (e.g., Jasco J-710) using standard parameters (e.g. wavelength 222 nm; step resolution, 0.5 nm; speed, 20 nm/sec; accumulations, 10; response, 1 sec; bandwidth, 1 nm; temperature increase rate: 1° C./min; path length, 0.1 cm).
Lyophilized SP-1 was dissolved in ddH2O to a final concentration of 50 μM. Tm was determined by measuring the circular dichroism (CD) spectra in a Jasco-810 spectropolarimeter at a fixed wavelength of 222 nm between the temperatures of 5-95° C. The following parameters were used for the measurement: data pitch, 0.1° C.; bandwidth, 1 nm and path length, 0.1 cm averaging the signal for 16 seconds.

[3] = test system: resting human peripheral lymphocytes (hPBLs); assay: Cell viability of resting hPBLs; assay type: cell-based; conditions: FIG. 16
Method: as §1, §2, §3

CCCC[C@H](NC(=O)C1(C)CCCC=CCCCC(C)(NC(=O)[C@H](C)NC(=O)[C@H](CC(C)C)NC(=O)[C@H](Cc2c[nH]cn2)NC(=O)[C@H](CCCNC(=N)N)NC(=O)[C@H](C)NC(=O)[C@@H](NC(=O)[C@H](CC(N)=O)NC(=O)[C@H](CCCNC(=N)N)NC(=O)[C@@H](NC(=O)[C@@H](NC(=O)[C@H](CC(=O)O)NC(C)=O)[C@@H](C)CC)[C@@H](C)CC)[C@@H](C)CC)C(=O)N[C@@H](C(C)C)C(=O)NCC(=O)N[C@@H](CC(=O)O)C(=O)N1)C(=O)N[C@@H](CC(=O)O)C(=O)N[C@@H](CCCNC(=N)N)C(=O)N[C@@H](CO)C(=O)N[C@H](C(N)=O)[C@@H](C)CC (stereo partly drawn) [SP-1] (Ac-DIIRNIARHLA[ξαMeNle(6-ylidene)]VGD[ξαMeNle(6-ylidene)][Nle]DRSI-NH2; staple 12-16)
apoptosis of NCI-H220 (SCLC) (NCI-H220): induced apoptosis
sensitivity of A-549 (NSCLC) (A-549): resistant
sensitivity of all leukemia/lymphoma lines tested [1]: sensitive
apoptosis of NCI-H128 (SCLC) (NCI-H128): induced apoptosis
apoptosis of NCI-H146 (SCLC) (NCI-H146): induced apoptosis
sensitivity of H-460 (NSCLC) (H-460): resistant
sensitivity of U251 (glioma) (U251): resistant
temperature up to which helical conformation is maintained [2]: up to 64 °C
programmed cell death of resting hPBLs [3]: does not induce programmed cell death
